The CheMixHub ionic liquid set

Test: xn = mol fraction of the nth substance listed

CCCCCCC(O)CO (configuration not stated) + CCCCCCCC[N+](CCCCCCCC)(CCCCCCCC)CCCCCCCC.[Br-] + [Cl-].[Cl-].[Co+2]
Conditions	viscosity [mPa·s]
296.1 K, 101.3 kPa, x2 = 0.4, x3 = 0.2	27000

CC(=O)N(C)C + CCCC[n+]1ccn(C)c1.F[B-](F)(F)F
viscosity [mPa·s], 101 kPa
Conditions	293.15 K	298.15 K	303.15 K	308.15 K	313.15 K	318.15 K	323.15 K
x1 = 1	–	–	–	–	0.778	–	–
x2 = 0	1.02	0.94	0.87	0.82	0.78	0.74	0.72

CCC(C)=O + CCCC[n+]1ccn(C)c1.F[B-](F)(F)F
viscosity [mPa·s]
Conditions	298.15 K	303.15 K	313.15 K	323.15 K	333.15 K
100 kPa, x2 = 0	–	0.367	0.333	0.304	0.29
100 kPa, x2 = 0.0997	–	0.817	0.737	0.688	0.595
100 kPa, x2 = 0.1995	–	1.594	1.424	1.27	1.189
100 kPa, x2 = 0.2996	–	2.941	2.486	2.135	1.878
100 kPa, x2 = 0.3997	–	5.054	4.146	3.479	2.97
100 kPa, x2 = 0.5001	–	8.51	6.778	5.465	4.57
100 kPa, x2 = 0.6001	–	14.01	10.62	8.302	6.74
100 kPa, x2 = 0.6998	–	22.67	16.37	12.55	9.78
100 kPa, x2 = 0.7999	–	35.13	24.24	17.78	13.54
100 kPa, x2 = 0.8993	–	54.16	35.18	24.79	18.41
101.33 kPa, x1 = 0.1005	67.9	–	–	–	–
101.33 kPa, x1 = 0.3107	22.7	–	–	–	–
101.33 kPa, x1 = 0.6995	3.17	–	–	–	–
